This test relates to Corn Earworm Helicoverpa zea. The test is described as follows: Insecticidal assay 11, corn earworm, 128 well bioassay trays. It is filed as in vivo. The settings on record: H. zea second instar; 50 microliters of 1 milligram per milliliter stock or serial dilutions on diet per well; assessed 5 days after infestation. Here is the method:
11. Insecticidal Assay for Corn Earworm Helicoverpa zea:
Objective: To assess the insecticidal activity of compounds against H. zea, through contact and ingestion.
Test unit preparation: 128 well bioassay trays are prepared by injecting each well with approximately 1 milliliter of prepared lepidopteran diet. Trays are allowed to dry prior to use.
Compound formulation and application: A 1 milligram per milliliter, stock solution is prepared for each compound by adding 2 milliliters of acetone/water diluent (9:1) to a vial containing 2 milligrams of technical compound. From this stock solution, additional doses may be produced through serial dilution. Once the appropriate concentrations have been prepared, 50 microliters of each solution is applied to the surface of the diet in each of 8 wells. Upon completing application, the trays are allowed to dry.
Infestation: Once dry, each well is infested with a single second instar corn earworm. Infested wells are sealed with self sticking, ventilated plastic covers.
Holding and assessment: After infestation and sealing, the trays are placed in a growth chamber at 25 C and 40% relative humidity. 5 days after infestation the larvae are assessed for insecticidal effects.

For the compound `N#Cc1c(NNc2c(Cl)cc(C(F)(F)F)cc2Cl)nc(C(F)(F)F)nc1C(F)(F)F` [Compound 11, 4-[N′-(2,6-dichloro-4-trifluoromethyl-phenyl)-hydrazino]-2,6-bis-trifluoromethyl-pyrimidine-5-carbonitrile], the insecticidal activity result is given as “significant insecticidal activity”.

The values above are taken from patent US8445500B2, “Pesticidal compositions” (Dow AgroSciences, LLC., priority 2007, dated 2013).
